Key:
[1] = cited from earlier work
rabbit eye = assay: Blink response to surface stimulation in rabbits: onset and duration of anesthesia; assay type: in vivo, New Zealand White Rabbits; details: as shown in the working examples
Description: This rabbit study was performed in order to evaluate various formulations. General guidelines for these studies are attached here as Attachment 1. This guideline defines the screening of six (6) formulations using two (2) different viscosity enhancing agents. The two agents selected were Carboxymethylcellulose (CMC) and Sodium Hyluronate (HA). The specifics of these formulations are described in Attachment 2.
A statistical analysis of the experimental results for both onset of action and the duration of anesthesia is provided below. The means were compiled and statistically compared to the controls in each individual formulation. The significance or non-significance is noted as (S=Significant P value <0.001, NS=Not Significant P Value >0.05). The duration results are summarized here in Table 1.
Six different formulations were tested and the onset and duration of action was evaluated.
The commercially available Tetracaine hydrochloride 0.5% Ophthalmic Solution was used as the control.
New Zealand White Rabbits were obtained from Harlan Sprague Dawley. They were housed in the animal facility at Mercer
Dosing was performed with the experimental formulation in one eye by dropping the formulation into the rabbit eye with the aid of a dropper and the standard marketed product was administered in the contra lateral eye as a control. Multiple experiments were run with the same group of rabbits. […]

## CCCCNc1ccc(C(=O)OCCN(C)C)cc1 [tetracaine]
[1]; background statement on tetracaine ophthalmic solution
  onset of anesthesia: ≤ 30 s
[1]; background statement, cataract surgery
  duration of anesthetic properties: 15 to 20 min
Rabbit eye
  duration of anesthesia after administration to the eye: up to 55 minutes

From patent publication US10821092B2, “Viscous topical ocular formulations” (Encompass Development, Inc., priority 2014, dated 2020)
